pIC50: −log10 of the molar value.
Tested on: NCI-H1341 complex spheroids, percent test/control
Experiment: Anticancer human tumor NCI-H1341 cell line growth inhibition [AhR];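 also: spheroids exposed to agents for seven days before readout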
Conditions: for pIC50: curve of first compound; for viability, T/C: stronger effect = lower value
Description: Multicellular complex tumor spheroid response to aryl hydrocarbon receptor antagonists in combination with a variety of drugs and investigational agents in selected tumor cell lines
The current study was undertaken to assess response to aryl hydrocarbon receptor antagonists in combination with standard-of-care drugs and investigational agents in solid tumor complex spheroid models. Complex spheroids include a stromal component modeled by human endothelial cells (HUVEC) and fibroblasts modeled by human mesenchymal stem cells (MSCs). The concentration ranges selected for each drug and investigational agent were based upon clinically achievable concentrations if the clinical Cmax of the agent was known.
Compounds. The drugs and investigational agents: BAY 2416964 (NSC825713), GNF351 (NSC835774), CH-223191 (NSC835775), CPI-455 (NSC825282), aza-TdCyd (NSC777586), decitabine (NSC127716), belinostat (NSC758774), entinostat (NSC756642), pevonedistat (NSC761192), tazemetostat (NSC777109), talazoparib (NSC765396), olaparib (NSC753686), selinexor (NSC780203), nedisertib (M3814, NSC802822), bortezomib (NSC756655), venetoclax (NSC766270), doxorubicin (NSC123127), elimusertib (BAY189344, NSC800525), ceralasertib (AZD6738, NSC777638), TAK-243 (NSC785004), alisertib (NSC759677), etoposide (NSC141540), topotecan (NSC609699), eribulin (NSC707389), gemcitabine (NSC613327), carboplatin (NSC241240), cisplatin (NSC119875), and SN-38 (NSC673596) were obtained from the National Cancer Institute (NCI) Developmental Therapeutics Program Chemical Repository (32). The FDA-approved anticancer drug set is available from the Developmental Therapeutics Program at https://dtp.cancer.gov/organization/dscb/obtaining/available plates.htm. […] The stock solutions were prepared in dimethyl sulfoxide (DMSO, Sigma-Aldrich, St. Louis, MO, cat. D2650), except for the platinum compounds which were prepared in saline (Quality Biological, Gaithersburg, MD, cat. 114-055-101), at 800-fold the tested concentration and stored at -70 degrees C prior to their use. All drugs and investigational agents were tested over a range starting from a high concentration at or near the clinical Cmax and decreasing in half-log increments. If the clinical Cmax for an agent had not been determined, the highest concentration tested was 10 microM (Table 1).
Cell Culture. All cells were maintained in an incubator at 37 degrees C and 5% CO2 with 95% humidity. The PDC lines were cultured according to standard operating procedures established by the NCI PDMR (https://pdmr.cancer.gov). Briefly, all PDCs were thawed and cultured in Matrigel-coated flasks prepared with a working solution of 1X Ham's F-12 nutrient mix, without supplementation (Invitrogen, Waltham, MA, cat. 11765054), 100 U/mL penicillin-streptomycin (Invitrogen, cat. 15140122), and 2.5% Matrigel (Corning Inc., Corning, NY, cat. 354248) for the first three passages. All PDCs were cultured in complete DMEM/F-12 media containing advanced DMEM/F-12 (Invitrogen, cat. 12634028), 4.9% defined fetal bovine serum, heat inactivated (HyClone Laboratories Inc., Logan, UT, cat. SH30070.03HI), 389 ng/mL hydrocortisone (Sigma-Aldrich, cat. H4001), 9.7 ng/mL human EGF recombinant protein (Invitrogen, cat. PHG0313), 23.4 microg/mL adenine (Sigma-Aldrich, cat. A2786), 97.3 U/mL penicillin-streptomycin (Invitrogen, cat. 15140122), 1.9 mM L-glutamine (Invitrogen, cat. 25030081), and 9.7 microM Y-27632 dihydrochloride (Tocris Bioscience, Bristol, United Kingdom, cat. 1254). The PDCs were cultured in complete DMEM/F12 media without 10 microM Y-27632 dihydrochloride for at least two passages prior to the screen. The established cell lines NCI-H1341 and […] were cultured in DMEM/F-12, HEPES (Invitrogen, cat. 11330032), 5% defined fetal bovine serum (HyClone Laboratories Inc., cat. SH30070.03), ITS premix universal culture supplement [insulin (5 microg/mL), transferrin (5 microg/mL), and selenious acid (5 ng/mL)] […]

[1] = second compound 0.1 µM, first compound 0.0316 µM
[2] = second compound 0.1 µM, first compound 0.1 µM
[3] = second compound 0.1 µM, first compound 0.316 µM
[4] = second compound 0.1 µM, first compound 1 µM
[5] = second compound 0.316 µM, first compound 0.0316 µM
[6] = second compound 0.316 µM, first compound 0.1 µM
[7] = second compound 0.316 µM, first compound 0.316 µM
[8] = second compound 0.316 µM, first compound 1 µM
[9] = second compound 1 µM, first compound 0.0316 µM
[10] = second compound 1 µM, first compound 0.1 µM
[11] = second compound 1 µM, first compound 0.316 µM
[12] = second compound 1 µM, first compound 1 µM
[13] = second compound 3.16 µM, first compound 0.0316 µM
[14] = second compound 3.16 µM, first compound 0.1 µM
[15] = second compound 3.16 µM, first compound 0.316 µM
[16] = second compound 3.16 µM, first compound 1 µM
[17] = second compound 10 µM, first compound 0.0316 µM
[18] = second compound 10 µM, first compound 0.1 µM
[19] = second compound 10 µM, first compound 0.316 µM
[20] = second compound 10 µM, first compound 1 µM
[21] = second compound 0.1 µM, first compound 3.16 µM
[22] = second compound 0.1 µM, first compound 10 µM
[23] = second compound 0.316 µM, first compound 3.16 µM
[24] = second compound 0.316 µM, first compound 10 µM
[25] = second compound 1 µM, first compound 3.16 µM
[26] = second compound 1 µM, first compound 10 µM
[27] = second compound 3.16 µM, first compound 3.16 µM
[28] = second compound 3.16 µM, first compound 10 µM
[29] = second compound 10 µM, first compound 3.16 µM
[30] = second compound 10 µM, first compound 10 µM

CC1COCCN1c1cc(-c2ccnn2C)c2ccnc(-c3ccn[nH]3)c2n1 (stereo not given) + Cc1cncc(-c2nc(NCCc3c[nH]c4ccccc34)c3ncn(C(C)C)c3n2)c1
pIC50 (second compound 0.1 µM): 7.38 | pIC50 (second compound 0.316 µM): 7.50 | pIC50 (second compound 1 µM): 7.45 | pIC50 (second compound 3.16 µM): 7.51 | pIC50 (second compound 10 µM): > 8.50 | viability, T/C (second compound 0.1 µM, first compound 0.00316 µM): 95.1% | viability, T/C (second compound 0.1 µM, first compound 0.01 µM): 97% | viability, T/C [1]: 57.8% | viability, T/C [2]: 25.1% | viability, T/C [3]: 25.7% | viability, T/C [4]: 17.8% | viability, T/C (second compound 0.316 µM, first compound 0.00316 µM): 79.9% | viability, T/C (second compound 0.316 µM, first compound 0.01 µM): 94.4% | viability, T/C [5]: 49.8% | viability, T/C [6]: 26.8% | viability, T/C [7]: 19.8% | viability, T/C [8]: 18.7% | viability, T/C (second compound 1 µM, first compound 0.00316 µM): 77.5% | viability, T/C (second compound 1 µM, first compound 0.01 µM): 79.4% | viability, T/C [9]: 51.6% | viability, T/C [10]: 26.8% | viability, T/C [11]: 23.9% | viability, T/C [12]: 16.7% | viability, T/C (second compound 3.16 µM, first compound 0.00316 µM): 76% | viability, T/C (second compound 3.16 µM, first compound 0.01 µM): 66.2% | viability, T/C [13]: 50% | viability, T/C [14]: 32.1% | viability, T/C [15]: 24.8% | viability, T/C [16]: 16.9% | viability, T/C (second compound 10 µM, first compound 0.00316 µM): 21% | viability, T/C (second compound 10 µM, first compound 0.01 µM): 19% | viability, T/C [17]: 16.5% | viability, T/C [18]: 15.2% | viability, T/C [19]: 12.2% | viability, T/C [20]: 10.1%

Nc1ccccc1NC(=O)c1ccc(CNC(=O)OCc2cccnc2)cc1 + CC(CO)NC(=O)c1cc(-c2ccc(Cl)cc2)nn(-c2cnn(C)c2)c1=O
pIC50 (second compound 0.1 µM): 6.84 | pIC50 (second compound 0.316 µM): 6.69 | pIC50 (second compound 1 µM): 6.73 | pIC50 (second compound 3.16 µM): 6.88 | pIC50 (second compound 10 µM): 7.28 | viability, T/C [1]: 66.7% | viability, T/C [2]: 58.1% | viability, T/C [3]: 34.4% | viability, T/C [4]: 14.8% | viability, T/C [21]: 6.51% | viability, T/C [22]: 0.25% | viability, T/C [5]: 74.3% | viability, T/C [6]: 60.1% | viability, T/C [7]: 45% | viability, T/C [8]: 15.6% | viability, T/C [23]: 6.91% | viability, T/C [24]: 0.6% | viability, T/C [9]: 60.9% | viability, T/C [10]: 64% | viability, T/C [11]: 40% | viability, T/C [12]: 16.7% | viability, T/C [25]: 8.93% | viability, T/C [26]: 0.42% | viability, T/C [13]: 63.4% | viability, T/C [14]: 57.3% | viability, T/C [15]: 31.3% | viability, T/C [16]: 12.1% | viability, T/C [27]: 6.39% | viability, T/C [28]: 0.79% | viability, T/C [17]: 56.6% | viability, T/C [18]: 41.3% | viability, T/C [19]: 26.4% | viability, T/C [20]: 12.6% | viability, T/C [29]: 4.04% | viability, T/C [30]: 0.25%

Nc1ccn(C2OC(CO)C(O)C2(F)F)c(=O)n1 (stereo not given) + Cc1ccccc1N=Nc1ccc(NC(=O)c2ccnn2C)c(C)c1
pIC50 (second compound 0.1 µM): > 7.50 | pIC50 (second compound 0.316 µM): > 7.50 | pIC50 (second compound 1 µM): > 7.50 | pIC50 (second compound 3.16 µM): > 7.50 | pIC50 (second compound 10 µM): > 7.50 | viability, T/C [1]: 33.4% | viability, T/C [2]: 38.5% | viability, T/C [3]: 43.6% | viability, T/C [4]: 34.7% | viability, T/C [21]: 32.5% | viability, T/C [22]: 34.7% | viability, T/C [5]: 40.3% | viability, T/C [6]: 38% | viability, T/C [7]: 34.7% | viability, T/C [8]: 39.6% | viability, T/C [23]: 31.6% | viability, T/C [24]: 38.5% | viability, T/C [9]: 43% | viability, T/C [10]: 42.7% | viability, T/C [11]: 35.5% | viability, T/C [12]: 32.3% | viability, T/C [25]: 31.1% | viability, T/C [26]: 35.3% | viability, T/C [13]: 45% | viability, T/C [14]: 38.5% | viability, T/C [15]: 38.7% | viability, T/C [16]: 32.3% | viability, T/C [27]: 36.9% | viability, T/C [28]: 32.5% | viability, T/C [17]: 44.2% | viability, T/C [18]: 40.4% | viability, T/C [19]: 41.4% | viability, T/C [20]: 34.9% | viability, T/C [29]: 29.7% | viability, T/C [30]: 39.3%

— PubChem BioAssay AID1919014 (Molecular Pharmacology Branch, DTP, NCI, 2023)
